From US20180291285A1 (Clariant International, Ltd., priority 2015, published 2018)

Assay: Bioaccumulation log Pow (slow stirring method)
Excerpt: As mentioned before. The environmental acceptability of these esterquat surfactant compounds is of essential importance for emulsion breaking operations in oil production processes.

In the case of “Dioleic acid triethanolamine esterquat [Di-oleic acid triethanolamine esterquat]”, the “bioaccumulation: log Pow” value is reported as 0.73.
